Several values for one entry are separate records, joined by “and”; a condition that tells them apart may be missing. Identical values can stand only once. Toxic doses and inconclusive results are not listed.

The subject of this assay is BDF1 mice, intracerebral L1210 leukemia, survival T/C. The assay can be described thus: NCI In Vivo Anticancer Drug Screen. Data for tumor model L1210 Leukemia (intracerebral) in B6D2F1 (BDF1) mice. Particulars: higher = longer survival. Summed up:
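Survival measured in treated and vehicle-control tumour-bearing mice; value = T/C.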

Where [1] appears, read: endpoint: mean survival time, dose: 250.0 mg/kg/injection, schedule: Q01DX001 (ip), vehicle: carboxymethylcellulose (CMC).
The mark [2] stands for this setting: endpoint: mean survival time, dose: 300.0 mg/kg/injection, schedule: Q01DX001 (ip), vehicle: carboxymethylcellulose (CMC).

For the compound `OCCN1CCN(CC/C=C2/c3ccccc3Sc3ccc(C(F)(F)F)cc32)CC1`, the T/C by setting is: (endpoint: mean survival time, dose: 3.12 mg/kg/injection, schedule: Q04DX003 (ip), vehicle: saline) 113 % of control; (endpoint: mean survival time, dose: 6.25 mg/kg/injection, schedule: Q04DX003 (ip), vehicle: saline) 111 % of control; (endpoint: mean survival time, dose: 12.5 mg/kg/injection, schedule: Q04DX003 (ip), vehicle: saline) 113 % of control; (endpoint: mean survival time, dose: 25.0 mg/kg/injection, schedule: Q04DX003 (ip), vehicle: saline) 100 % of control.

With `CN(N=O)C(=O)NCCCCNC(=O)N(C)N=O`, the T/C is, setting by setting: under setting [1], 103 % of control; under setting [2], 110 % of control; (endpoint: mean survival time, dose: 500.0 mg/kg/injection, schedule: Q01DX001 (ip), vehicle: carboxymethylcellulose (CMC)) 102 % of control; (endpoint: mean survival time, dose: 750.0 mg/kg/injection, schedule: Q01DX001 (ip), vehicle: carboxymethylcellulose (CMC)) 110 % of control.

For the compound `O=C1C=C(N2CC2)C(=O)C(N2CC2)=C1N1CC1`, the T/C by setting is: (endpoint: mean survival time, dose: 0.01 mg/kg/injection, schedule: Q01DX009 (ip), vehicle: saline) 94 % of control; (endpoint: mean survival time, dose: 0.02 mg/kg/injection, schedule: Q01DX009 (ip), vehicle: saline) 100 % of control; (endpoint: mean survival time, dose: 0.05 mg/kg/injection, schedule: Q01DX009 (ip), vehicle: saline) 116 % of control.

Turning to `O=c1n(CC2CO2)c(=O)n(CC2CO2)c(=O)n1CC1CO1` (stereo not drawn), the T/C is, setting by setting: (endpoint: median survival time, dose: 40.0 mg/kg/injection, schedule: Q01DX009 (ip), vehicle: saline) 151 % of control; (endpoint: median survival time, dose: 70.0 mg/kg/injection, schedule: Q01DX009 (ip), vehicle: saline) 121 % of control; (endpoint: median survival time, dose: 80.0 mg/kg/injection, schedule: Q01DX009 (ip), vehicle: saline) 121 % of control; (endpoint: median survival time, dose: 90.0 mg/kg/injection, schedule: Q01DX009 (ip), vehicle: saline) 122 % of control.

Take `CN(Cc1cnc2nc(N[Si](C)(C)C)nc(N[Si](C)(C)C)c2n1)c1ccc(C(=O)NC(CCC(=O)O[Si](C)(C)C)C(=O)O[Si](C)(C)C)cc1` (stereo not drawn): the T/C reads like this: (endpoint: mean survival time, dose: 1.0 mg/kg/injection, schedule: Q01DX009 (ip), vehicle: Klucel (hydroxypropylcellulose) (HPC)) 118 % of control; (endpoint: mean survival time, dose: 2.0 mg/kg/injection, schedule: Q01DX009 (ip), vehicle: saline) 173 % of control; (endpoint: mean survival time, dose: 4.0 mg/kg/injection, schedule: Q01DX009 (ip), vehicle: Klucel (hydroxypropylcellulose) (HPC)) 110 % of control; (endpoint: mean survival time, dose: 4.0 mg/kg/injection, schedule: Q01DX009 (ip), vehicle: saline) 93 % of control.

With `NCCCCS(=O)(=O)Nc1ccc(Nc2c3ccccc3nc3cc([N+](=O)[O-])ccc23)cc1`, the T/C is 97 % of control (endpoint: mean survival time, dose: 25.0 mg/kg/injection, schedule: Q01DX009 (ip), vehicle: saline) and 99 % of control (endpoint: mean survival time, dose: 50.0 mg/kg/injection, schedule: Q01DX009 (ip), vehicle: saline).

Take `CCOC(=O)c1ccc(NC(=O)N(C)N=O)cc1`: the T/C is 94 % of control (endpoint: mean survival time, dose: 75.0 mg/kg/injection, schedule: Q01DX001 (ip), vehicle: carboxymethylcellulose (CMC)); 102 % of control (endpoint: mean survival time, dose: 150.0 mg/kg/injection, schedule: Q01DX001 (ip), vehicle: carboxymethylcellulose (CMC)); 97 % of control under setting [2].

Consider `CN(N=O)C(N)=O`, for which the T/C was 102 % of control (endpoint: mean survival time, dose: 18.0 mg/kg/injection, schedule: Q01DX001 (ip), vehicle: saline); 110 % of control (endpoint: mean survival time, dose: 36.0 mg/kg/injection, schedule: Q01DX001 (ip), vehicle: saline); 152 % of control (endpoint: mean survival time, dose: 72.0 mg/kg/injection, schedule: Q01DX001 (ip), vehicle: saline).

Take `O=NN(CCF)C(=O)NCCCl`: the T/C runs as follows: (endpoint: mean survival time, dose: 9.0 mg/kg/injection, schedule: Q01DX001 (ip), vehicle: Klucel (hydroxypropylcellulose) (HPC)) 156 % of control and 203 % of control; (endpoint: mean survival time, dose: 14.0 mg/kg/injection, schedule: Q01DX001 (ip), vehicle: Klucel (hydroxypropylcellulose) (HPC)) 233 % of control and 338 % of control; (endpoint: mean survival time, dose: 21.0 mg/kg/injection, schedule: Q01DX001 (ip), vehicle: Klucel (hydroxypropylcellulose) (HPC)) 456 % of control and 513 % of control; (endpoint: mean survival time, dose: 32.0 mg/kg/injection, schedule: Q01DX001 (ip), vehicle: Klucel (hydroxypropylcellulose) (HPC)) 622 % of control and 710 % of control; (endpoint: mean survival time, dose: 48.0 mg/kg/injection, schedule: Q01DX001 (ip), vehicle: Klucel (hydroxypropylcellulose) (HPC)) 727 % of control; (endpoint: mean survival time, dose: 71.0 mg/kg/injection, schedule: Q01DX001 (ip), vehicle: Klucel (hydroxypropylcellulose) (HPC)) 228 % of control.

As for `CNC(=O)NC(=O)N(C)N=O`, the T/C (endpoint: mean survival time, dose: 15.0 mg/kg/injection, schedule: Q01DX001 (ip), vehicle: carboxymethylcellulose (CMC)) is 105 % of control; the T/C (endpoint: mean survival time, dose: 22.6 mg/kg/injection, schedule: Q01DX001 (ip), vehicle: carboxymethylcellulose (CMC)) is 105 % of control; the T/C (endpoint: mean survival time, dose: 34.0 mg/kg/injection, schedule: Q01DX001 (ip), vehicle: carboxymethylcellulose (CMC)) is 98 % of control; the T/C (endpoint: mean survival time, dose: 51.0 mg/kg/injection, schedule: Q01DX001 (ip), vehicle: carboxymethylcellulose (CMC)) is 112 % of control; the T/C (endpoint: mean survival time, dose: 77.0 mg/kg/injection, schedule: Q01DX001 (ip), vehicle: carboxymethylcellulose (CMC)) is 109 % of control and 111 % of control; the T/C (endpoint: mean survival time, dose: 117.0 mg/kg/injection, schedule: Q01DX001 (ip), vehicle: carboxymethylcellulose (CMC)) was 91 % of control. In addition, where the note is “endpoint: mean survival time, dose: 175.0 mg/kg/injection, schedule: Q01DX001 (ip), vehicle: carboxymethylcellulose (CMC)”, the T/C was 87 % of control.

Take `N#CCCNC(=O)N(CCC#N)N=O`: the T/C was 102 % of control (endpoint: mean survival time, dose: 167.0 mg/kg/injection, schedule: Q01DX001 (ip), vehicle: carboxymethylcellulose (CMC)) and 109 % of control under setting [1].

On to `O=NN(CCCl)C(=O)NC1CC2CCC1C2` (stereo not drawn), for which the T/C was 124 % of control (endpoint: mean survival time, dose: 14.5 mg/kg/injection, schedule: Q01DX001 (ip), vehicle: other); 196 % of control (endpoint: mean survival time, dose: 26.0 mg/kg/injection, schedule: Q01DX001 (ip), vehicle: carboxymethylcellulose (CMC)); 162 % of control and 176 % of control and 191 % of control (endpoint: mean survival time, dose: 29.25 mg/kg/injection, schedule: Q01DX001 (oral), vehicle: other); 236 % of control (endpoint: mean survival time, dose: 39.0 mg/kg/injection, schedule: Q01DX001 (ip), vehicle: other); 247 % of control and 265 % of control (endpoint: mean survival time, dose: 41.0 mg/kg/injection, schedule: Q01DX001 (ip), vehicle: carboxymethylcellulose (CMC)); 306 % of control and 356 % of control and 442 % of control (endpoint: mean survival time, dose: 58.5 mg/kg/injection, schedule: Q01DX001 (oral), vehicle: other). Moreover, the T/C (endpoint: mean survival time, dose: 62.0 mg/kg/injection, schedule: Q01DX001 (ip), vehicle: carboxymethylcellulose (CMC)) was 303 % of control and 306 % of control; the T/C (endpoint: mean survival time, dose: 87.0 mg/kg/injection, schedule: Q01DX001 (ip), vehicle: other) is 151 % of control; the T/C (endpoint: mean survival time, dose: 93.0 mg/kg/injection, schedule: Q01DX001 (ip), vehicle: carboxymethylcellulose (CMC)) was 188 % of control and 268 % of control; the T/C (endpoint: mean survival time, dose: 117.0 mg/kg/injection, schedule: Q01DX001 (oral), vehicle: other) is 111 % of control and 154 % of control and 294 % of control; the T/C (endpoint: mean survival time, dose: 139.0 mg/kg/injection, schedule: Q01DX001 (ip), vehicle: carboxymethylcellulose (CMC)) is 105 % of control and 101 % of control.
